In patent US8378104B2 (OSI Pharmaceuticals, LLC, priority 2010, dated 2013):
Counter-ions that a name gives are not always drawn.

What was measured:
pJNK in HCT-116 cells = test: Phospho-JNK (Thr183/Tyr185) Meso Scale ELISA assay, TNFα-stimulated HCT-116 cells; format: cell-based; conditions: Homo sapiens, read-out: mean HCT-116 pJNK ELISA IC50 (Col. B)
How it was run: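 Meso Scale ELISA read of phospho-JNK (Thr183/Tyr185) in lysed HCT-116 cells. Cells were serum-reduced to 1% FCS for 2 hours, exposed to test drug for 4 hrs at 37° C, then given 10 ng/mL TNFα (final) for 10 minutes before lysis.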

p-p38 in HCT-116 cells = test: Phospho-p38 Meso Scale ELISA assay, TNFα-stimulated HCT-116 cells; format: cell-based; conditions: Homo sapiens, read-out: mean HCT-116 p-p38 ELISA IC50 (Col. C)
Experimental: Detailed below are ELISA assays for pJNK and p38, and a TAK1 biochemical assay. […] In Table 1, Col.
• 1. Plate HCT-116 cells at 25,000 per well in 100 uL in 96 well clear dishes in normal growth medium. Day 2: • 1. Aspirate medium and replace with 90 μl reduced serum growth medium (1% FCS), incubate for 2 hours at 37° C. • 2. Make drugs at 10× in reduced serum medium and add 10 uL per well. • 3. Incubate at 37° C. for 4 hrs. • 4. Bring capture plates to room temperature. • 5. Block with 150 μl Blocking Solution (provided with kit) (600 mg Blocker A into 20 mL 1× Wash Buffer per plate) at room temperature with shaking. • 6. Wash plates 4× with 200 μl 1× wash buffer (10× provided with kit) before transferring lysates. • 7. Dilute TNFα to […] in reduced serum medium (this makes a 10× working stock). • 8. Add 10 μl TNFα to all wells except negative control wells, final concentration is 10 ng/mL. • 9. Incubate at 37° C. for 10 minutes. • 10. Remove medium by flicking into sink • 11. Wash cells with 100 uL ice cold PBS. • 12. Remove PBS by flicking into sink and patting on paper towels. • 13. Lyse cells in 50 μl ice cold 1× Complete Lysis Buffer plus Phosphatase and Protease inhibitors (all provided with kit) (10 mL Tris Lysis Buffer+200 μl Protease inhibitor solution+100 μl Phosphatase inhibitor I+100 μl Phosphatase inhibitor II). • 14. Incubate with shaking at 4° C. for 30 minutes. • 15. Transfer 45 μl to capture plate, cover with adhesive cover, and incubate at 4° C. over night with shaking. • Day 3: • 1. Wash plates 4× with 200 μl 1× wash buffer (10× provided with kit). • 2. […] Incubate at room temperature with shaking for 1 hour. • 4. Wash 4× with 200 μl 1× Wash Buffer. • 5. […] Read on Sector Imager. Phospho-p38 Meso Scale ELISA Assay Day 1: • 1. Plate HCT-116 cells at 25,000 per well in 100 uL in 96 well clear dishes in normal growth medium. zday 2: • 1. Aspirate medium and replace with 90 μl reduced serum growth medium (1% FCS), incubate for 2 hours at 37° C. • 2. Make drugs at 10× in reduced serum medium and add 10 uL per well. • 3. Incubate at 37° C. for 4 hrs. • 4. Bring capture plates to room temperature. • 5. Block with 150 μl Blocking Solution (provided with kit) (600 mg Blocker A into 20 mL 1× Wash Buffer per plate) at room temperature with shaking. • 6. Wash plates 4× with 200 μl 1× wash buffer (10× provided with kit) before transferring lysates. • 7. Dilute TNFα to […] in reduced serum medium (this makes a 10× working stock). • 8. Add 10 μl TNFα to all wells except negative control wells, final concentration is 10 ng/mL. • 9. Incubate at 37° C. for 10 minutes. • 10. Remove medium by flicking into sink • 11. Wash cells with 100 uL ice cold PBS. • 12. Remove PBS by flicking into sink and patting on paper towels. • 13. Lyse cells in 50 μl ice cold 1× Complete Lysis Buffer plus phosphatase and protease inhibitors (all provided with kit) (10 mL Tris Lysis Buffer+200 μl Protease inhibitor solution+100 μl Phosphatase inhibitor I+100 μl Phosphatase inhibitor II). • 14. Incubate with shaking at 4° C. for 30 minutes. • 15. Dilute lysates before transferring to capture plate with 100 μl Complete p38 Lysate • Dilution Buffer (provided with kit) (10 mL of Diluent 20±200 μl Protease inhibitor solution+100 μl Phosphatase inhibitor I+100 μl Phosphatase inhibitor II). • 16. Transfer 50 μl of diluted lysates to capture plate, cover with adhesive cover, and incubate at 4° C. over night with shaking. Day 3: • 1. Wash plates 4× with 200 μl 1× wash buffer (10× provided with kit). • 2. […] Incubate at room temperature with shaking for 1 hour. • 4. Wash 4× with 200 μl 1× Wash Buffer. • 5. […] Read on Sector Imager. TAK1 Biochemical Assay

TAK1-TAB1 fusion protein = target: T1, TAK1-TAB1 fusion protein (Homo sapiens, UniProt O43318); test: TAK1 biochemical assay (AlphaScreen, GST-MAP2K7 substrate); conditions: TAK1-TAB1 fusion protein, GST-MAP2K7 substrate; read-out: mean TAK1 IC50 (Col. A)
T1 construct: purchased Carna
T1 sequence (O43318 with tags, fused parts or gaps limits assumed): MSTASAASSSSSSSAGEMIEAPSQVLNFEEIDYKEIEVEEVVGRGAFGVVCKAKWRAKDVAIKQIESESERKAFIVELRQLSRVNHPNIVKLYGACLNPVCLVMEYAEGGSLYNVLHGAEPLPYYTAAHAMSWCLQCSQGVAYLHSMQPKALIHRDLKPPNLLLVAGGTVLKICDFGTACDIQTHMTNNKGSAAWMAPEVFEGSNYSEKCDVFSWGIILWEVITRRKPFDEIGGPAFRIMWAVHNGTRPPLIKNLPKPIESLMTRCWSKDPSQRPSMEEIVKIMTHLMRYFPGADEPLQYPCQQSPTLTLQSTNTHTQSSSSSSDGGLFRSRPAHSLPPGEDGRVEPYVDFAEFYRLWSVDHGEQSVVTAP

Structure (SMILES)	IC50 (pJNK in HCT-116 cells)	IC50 (p-p38 in HCT-116 cells)	IC50 (TAK1-TAB1 fusion protein)
Nc1ncc(-c2cnn(C3CCNCC3)c2)c2cc(-c3ccc4[nH]ncc4c3)oc12 [Example 18, 2-(1H-indazol-5-yl)-4-[1-(piperidin-4-yl)-1H-pyrazol-4-yl]furo[2,3-c]pyridin-7-amine hydrochloride]	100 to 1000 nM	100 to 1000 nM	< 100 nM
Nc1ncc(-c2cnn(C3CCNCC3)c2)c2cc(-c3cccc4cnccc34)oc12 [Example 33, 2-(isoquinolin-5-yl)-4-[1-(piperidin-4-yl)-1H-pyrazol-4-yl]furo[2,3-c]pyridine-7-amine]	100 to 1000 nM	100 to 1000 nM	100 to 1000 nM
Nc1ncc(-c2cnn(C3CCNCC3)c2)c2cc(-c3ccc4[nH]ccc4c3)oc12 [Example 38, 2-(1H-indol-5-yl)-4-[1-(piperidin-4-yl)-1H-pyrazol-4-yl]furo[2,3-c]pyridin-7-amine]	1000 to 10000 nM	1000 to 10000 nM	100 to 1000 nM
COCC(=O)N1CCC(n2cc(-c3cnc(N)c4oc(-c5cccc6cnccc56)cc34)cn2)CC1 [Example 50, 1-(4-{4-[7-amino-2-(isoquinolin-5-yl)furo[2,3-c]pyridin-4-yl]-1H-pyrazol-1-yl}piperidin-1-yl)-2-methoxyethanone]	100 to 1000 nM	100 to 1000 nM	100 to 1000 nM
CC(C)C(=O)N1CCC(n2cc(-c3cnc(N)c4oc(-c5cccc6cnccc56)cc34)cn2)CC1 [Example 51, 1-(4-{4-[7-amino-2-(isoquinolin-5-yl)furo[2,3-c]pyridin-4-yl]-1H-pyrazol-1-yl}piperidin-1-yl)-2-methylpropan-1-one]	< 100 nM	< 100 nM	100 to 1000 nM
Nc1ncc(-c2cnn(C3CCN(C(=O)C4CC4)CC3)c2)c2cc(-c3cccc4cnccc34)oc12 [Example 52, (4-{4-[7-amino-2-(isoquinolin-5-yl)furo[2,3-c]pyridin-4-yl]-1H-pyrazol-1-yl}piperidin-1-yl)(cyclopropyl)methanone]	100 to 1000 nM	100 to 1000 nM	100 to 1000 nM
Nc1ncc(-c2cnn(C3CCN(C(=O)C4CCC4)CC3)c2)c2cc(-c3cccc4cnccc34)oc12 [Example 53, (4-{4-[7-amino-2-(isoquinolin-5-yl)furo[2,3-c]pyridin-4-yl]-1H-pyrazol-1-yl}piperidin-1-yl)(cyclobutyl)methanone]	< 100 nM	100 to 1000 nM	100 to 1000 nM
Nc1ncc(-c2cnn(C3CCNCC3)c2)c2cc(-c3ccc4[nH][nH]c(=O)c4c3)oc12 [Example 55, 5-{7-amino-4-[1-(piperidin-4-yl)-1H-pyrazol-4-yl]furo[2,3-c]pyridin-2-yl}-1,2-dihydro-3H-indazol-3-one trifluoroacetic acid salt]	> 10000 nM	> 10000 nM	< 100 nM
CC(C)n1cc(-c2cnc(N)c3oc(-c4cccc5cnccc45)cc23)cn1 [Example 60, 2-(isoquinolin-5-yl)-4-[1-(propan-2-yl)-1H-pyrazol-4-yl]furo[2,3-c]pyridin-7-amine]	100 to 1000 nM	100 to 1000 nM	100 to 1000 nM
Nc1ncc(-c2cnn([C@H]3CC[C@H](O)CC3)c2)c2cc(-c3cccc4cnccc34)oc12 [Example 65, trans-4-{4-[7-amino-2-(isoquinolin-5-yl)furo[2,3-c]pyridin-4-yl]-1H-pyrazol-1-yl}cyclohexanol]	< 100 nM	100 to 1000 nM	100 to 1000 nM
COCCN1CCC(n2cc(-c3cnc(N)c4oc(-c5cccc6cnccc56)cc34)cn2)CC1 [Example 68, 2-(isoquinolin-5-yl)-4-{1-[1-(2-methoxyethyl)piperidin-4-yl]-1H-pyrazol-4-yl}furo[2,3-c]pyridin-7-amine]	100 to 1000 nM	100 to 1000 nM	100 to 1000 nM
Nc1ncc(-c2cn[nH]c2)c2cc(-c3cccc4cnccc34)oc12 [Example 69, 2-(isoquinolin-5-yl)-4-(1H-pyrazol-4-yl)furo[2,3-c]pyridin-7-amine]	100 to 1000 nM	100 to 1000 nM	1000 to 10000 nM
Cn1cc(-c2cnc(N)c3oc(-c4cccc5cnccc45)cc23)cn1 [Example 70, 2-(isoquinolin-5-yl)-4-(1-methyl-1H-pyrazol-4-yl)furo[2,3-c]pyridin-7-amine]	100 to 1000 nM	100 to 1000 nM	1000 to 10000 nM
Nc1ncc(-c2cnn(C3CCOCC3)c2)c2cc(-c3cccc4cnccc34)oc12 [Example 74, 2-(isoquinolin-5-yl)-4-[1-(tetrahydro-2H-pyran-4-yl)-1H-pyrazol-4-yl]furo[2,3-c]pyridin-7-amine]	100 to 1000 nM	1000 to 10000 nM	100 to 1000 nM
C[C@]1(O)CC[C@@H](n2cc(-c3cnc(N)c4oc(-c5cccc6cnccc56)cc34)cn2)CC1 [Example 76, cis-4-{4-[7-amino-2-(isoquinolin-5-yl)furo[2,3-c]pyridin-4-yl]-1H-pyrazol-1-yl}-1-methylcyclohexanol]	100 to 1000 nM	100 to 1000 nM	100 to 1000 nM
CN1CCC(n2cc(-c3cnc(N)c4oc(-c5cccc6cnccc56)cc34)cn2)CC1 [Example 77, 2-(isoquinolin-5-yl)-4-[1-(1-methylpiperidin-4-yl)-1H-pyrazol-4-yl]furo[2,3-c]pyridin-7-amine]	< 100 nM	100 to 1000 nM	100 to 1000 nM
Cc1sc2cnccc2c1-c1cc2c(-c3cnn([C@H]4CC[C@H](O)CC4)c3)cnc(N)c2o1 [Example 252, trans-4-{4-[7-amino-2-(2-methylthieno[2,3-c]pyridin-3-yl)furo[2,3-c]pyridin-4-yl]-1H-pyrazol-1-yl}cyclohexanol trifluoroacetate]	–	100 to 1000 nM	100 to 1000 nM
Cc1ncc(-c2cnc(N)c3oc(-c4csc5cnccc45)cc23)s1 [Example 388, 4-(2-methyl-1,3-thiazol-5-yl)-2-(thieno[2,3-c]pyridin-3-yl)furo[2,3-c]pyridin-7-amine trifluoroacetate]	100 to 1000 nM	–	100 to 1000 nM
Nc1ncc(-c2ccoc2)c2cc(-c3csc4cnccc34)oc12 [Example 392, 4-(furan-3-yl)-2-(thieno[2,3-c]pyridin-3-yl)furo[2,3-c]pyridin-7-amine trifluoroacetate]	1000 to 10000 nM	–	100 to 1000 nM
